According to US20160038485A1, “PHASE 2 INDUCERS AND RELATED SIGNALING PATHWAYS PROTECT CARTILAGE AGAINST INFLAMMATION, APOPTOSIS AND STRESS” (THE JOHNS HOPKINS UNIVERSITY, priority 2006, published 2016):

Test system: T/C28a2 chondrocytic cells
Assay: DNA microarray analysis of shear-induced mRNA response of chondrocytes
Type: cell-based, human
Conditions: Wy14643 10 μM; 20 dyn/cm^2, 48 hours; cDNA microarray
Protocol: (§1) Cell Culture and Shear Stress Exposure: Human T/C28a2 chondrocytic cells were grown (37° C., 5% CO2) in 1:1 Ham's F-12/DMEM (Biowhittaker) supplemented with 10% FBS. Prior to shear exposure, T/C28a2 cells were incubated for 24 hours in serum-free medium containing 1% Nutridoma-SP (Roche), a low-protein serum replacement that maintains chondrocyte phenotype. Primary HUVECs were cultured as described (Goldring, M. B., 2004). T/C28a2 cells were exposed to shear stress in media containing 1% Nutridoma by use of a parallel-plate flow chamber with a recirculating flow loop (37° C., 5% CO2) (10). HUVECs were treated similarly by circulating media supplemented with 10% FBS.
Microarray Hybridization and Analysis: Cy-3- and Cy-5-labeled probes were mixed, dried, resuspended in hybridization buffer (50% formamide, 10×SSC, 0.2% SDS, COT-I DNA, Poly(A)-DNA), and denatured. The probes were added to microarray slides printed with a set of 32,448 or 39,936 expressed sequence tags (ESTs), allowed to hybridize at 42° C. overnight, and processed as described (Abulencia, J. P., et al. 2003. Hegde, P. et al. 2000). Expression ratios were derived using TIGR Spotfinder (Abulencia, J. P. et al. 2003, Hegde, P. et al. 2000). Differentially expressed genes were identified by Significance Analysis of Microarrays, and analyzed with the software TMEV (Abulencia, J. P. et al. 2003).
(§2) Quantitative Real-Time PCR (qRT-PCR) was used to verify DNA microarray data. Incorporation of SYBR Green into PCR products was monitored with the 7900HT detection system.

SMILES | shear-mediated up-regulation of JNK2 mRNA levels | shear-mediated up-regulation of c-Jun mRNA levels
Cc1cccc(Nc2cc(Cl)nc(SCC(=O)O)n2)c1C [Wy14643] | nearly abrogates | nearly abrogates

Test system: T/C-28a2 cells
Assay: qRT-PCR transcript ratios (shear/static) in chondrocytes
Type: cell-based, human
Conditions: Wy14643 10 μM pre-treatment; 20 dyn/cm^2, 48 h; mean + range (n = 2)
Protocol: as §1, §2
Cell Culture and shear stress exposure, microarray hybridization and analysis and quantitative real-time PCR (qRT-PCR) were carried out as in example 1. T/C-28a2 chondrocytes were pre-treated with a specific PPARα ligand, Wy14643 (10 μM) for 2 hours before being subjected to a shear stress level of 20 dyn/cm^2 for 48 hours in the presence of Wy14643. This pharmacological intervention abolished the shear-induced down regulation of the mRNA levels of Nrf2 and phase 2 genes and apoptosis as evidenced by the abrogation of shear-mediated changes of Bcl-w and pro-caspase-9 mRNA expression.

SMILES | Bcl-w (Bcl-2-like protein 2) qRT-PCR Transcript Ratio (Shear/Static) | COX-2 (cyclooxygenase-2) qRT-PCR Transcript Ratio (Shear/Static) | Caspase-9 precursor qRT-PCR Transcript Ratio (Shear/Static) | GCLR (glutamate-cysteine ligase) qRT-PCR Transcript Ratio (Shear/Static) | GST μ1 (glutathione-S-transferase class μ1) qRT-PCR Transcript Ratio (Shear/Static) | MMP-9 (matrix metalloproteinase-9) qRT-PCR Transcript Ratio (Shear/Static) | NQO1 (NAD(P)H:quinone oxidoreductase-1) qRT-PCR Transcript Ratio (Shear/Static) | Nrf2 (NF-E2 related factor 2) qRT-PCR Transcript Ratio (Shear/Static) | PGE2 Receptor Subtype EP4 qRT-PCR Transcript Ratio (Shear/Static) | PPARα qRT-PCR Transcript Ratio (Shear/Static)
Cc1cccc(Nc2cc(Cl)nc(SCC(=O)O)n2)c1C [Wy14643] | 1.0 ± 0.1 | 1.3 ± 0.2 | 1.0 ± 0.1 | 1.2 ± 0.2 | 1.3 ± 0.2 | 1.3 ± 0.1 | 1.0 ± 0.1 | 1.6 ± 0.1 | 0.6 ± 0.1 | 1.1 ± 0.2

Same assay, conditions: Wy14643 10 μM pre-treatment; 20 dyn/cm^2, 48 h; mean + range (n = 2)

SMILES | iNOS (inducible Nitric Oxide Synthase II) qRT-PCR Transcript Ratio (Shear/Static)
Cc1cccc(Nc2cc(Cl)nc(SCC(=O)O)n2)c1C [Wy14643] | 1.0 ± 0.2

Same assay, conditions: Wy14643 10 μM, 2 hours before and during 20 dyn/cm^2, 48 hours

SMILES | shear-induced down regulation of the mRNA levels of Nrf2 and phase 2 genes
Cc1cccc(Nc2cc(Cl)nc(SCC(=O)O)n2)c1C [Wy14643] | abolished

Same assay, conditions: Wy14643 10 μM; 20 dyn/cm^2, 48 hours

SMILES | shear-mediated changes of Bcl-w and pro-caspase-9 mRNA expression (apoptosis)
Cc1cccc(Nc2cc(Cl)nc(SCC(=O)O)n2)c1C [Wy14643] | abrogation

Test system: ARE-driven NQO1 promoter
Assay: Promoter activity assay (pNQO1/ARE-luc)
Type: cell-based, human
Conditions: transfected T/C28a2 cells; SFN 1.25 μM or D3T 5 μM, 24 h, static conditions
Protocol: Transient Transfection and Plasmid Constructs: T/C28a2 cells were transfected with 10 μg of plasmid and 2 μg of control with Lipofectamine and Plus Reagent (Invitrogen). Cells were allowed to recover for 3 hours, incubated overnight in medium containing 1% Nutridoma, and exposed to the indicated treatments. Efficiency was assessed by flow cytometry with pEGFP-N2 (BD Biosciences). pCMV-mNrf2 and pNQO1/ARE-luc constructs were provided by N. Wakabayashi (Wakabayashi, N. et al. 2004). Igarashi, K., et al. 1994), and pBJ M-pl 10*-myc, pBJ M<<pl 10-UR, and pCG pi 10 wt constructs were provided by A. Kippel (Hu, Q., et al. 1995).
Promoter Activity Assay: T/C28a2 cells were transfected with 10 μg of pNQO1/ARE-luc and 1 μg each of pEGFP-N2 and pSV40-hRL2 (Promega) to normalize transfection efficiency. Firefly and Renilla luciferase activities were measured using the Dual-Luciferase Report Assay kit (Promega).

ARE-driven NQO1 promoter luciferase activity | SMILES
increases the luciferase activity | C[S@@+]([O-])CCCCN=C=S [SFN, (−)-1-isothiocyanato-4(R)-(methylsulfinyl)-butane]

Test system: NQO1
Assay: NQO1 enzyme activity in shear-activated chondrocytes
Type: cell-based, human
Conditions: T/C28a2, high shear (20 dyn/cm^2); SFN 1.25 μM, D3T 5 μM, CAY10404 6.75 μM, NS398 30 μM
Protocol: as §1
(§3) Cell Viability, NQO1 activity, Glutathione levels, and Prostaglandin (PG)E2 production: Cell viability was monitored with the MTT assay (Gao, X. et al. 2001). NQO1 activity and total GSH (oxidized and reduced) levels of cell lysates were determined in 96-well microtiter plates. PGE2 levels were determined in media by the Prostaglandin E2 monoclonal EIA kit (Cayman Chemical).

SMILES | shear-induced suppression of NQO1 activity
CS(=O)(=O)c1ccc(-c2noc(C(F)(F)F)c2-c2ccccc2)cc1 [CAY10404] | reduced the shear-induced down-regulation
C[S@@+]([O-])CCCCN=C=S [SFN, (−)-1-isothiocyanato-4(R)-(methylsulfinyl)-butane] | abolished
CS(=O)(=O)Nc1ccc([N+](=O)[O-])cc1OC1CCCCC1 [NS398] | indistinguishable from those with CAY10404

Test system: T/C28a2 cells
Assay: Total glutathione (GSH) levels in shear-activated chondrocytes
Type: cell-based, human
Conditions: T/C28a2, high shear (20 dyn/cm^2); SFN 1.25 μM, CAY10404 6.75 μM, NS398 30 μM
Protocol: as §1, §3

SMILES | shear-induced suppression of intracellular GSH levels
CS(=O)(=O)c1ccc(-c2noc(C(F)(F)F)c2-c2ccccc2)cc1 [CAY10404] | reduced the shear-induced down-regulation
C[S@@+]([O-])CCCCN=C=S [SFN, (−)-1-isothiocyanato-4(R)-(methylsulfinyl)-butane] | abolished
CS(=O)(=O)Nc1ccc([N+](=O)[O-])cc1OC1CCCCC1 [NS398] | indistinguishable from those with CAY10404

Test system: T/C28a2 cells
Assay: Shear-induced apoptosis: DNA fragmentation (TUNEL) and mitochondrial membrane depolarization
Type: cell-based, human
Conditions: 20 dyn/cm^2, 48 h; D3T 5 μM, CAY10404 6.75 μM, NS398 30 μM
Protocol: as §1
DNA Fragmentation and Mitochondrial Depolarization: For DNA fragmentation, cells were fixed in 4% paraformaldehyde for 1 hour at 25° C., washed 2× in PBS, and permeabilized briefly in 0.1% Triton-X100/0.1% sodium citrate on ice. Subsequently, cells were washed 2× in PBS, labeled using the In Situ Cell Death Kit (Roche), and analyzed by flow cytometry. To quantify Mitochondrial Membrane Potential (MMP), cells were labeled using the MitoProbe JC-I Kit (Molecular Probes).

SMILES | shear-induced apoptosis (DNA fragmentation TUNEL, mitochondrial membrane depolarization MMP)
CS(=O)(=O)c1ccc(-c2noc(C(F)(F)F)c2-c2ccccc2)cc1 [CAY10404] | marked reduction
CS(=O)(=O)Nc1ccc([N+](=O)[O-])cc1OC1CCCCC1 [NS398] | marked reduction

Test system: phase 2 genes
Assay: not given
Conditions: cited from earlier work

SMILES | CD
O=CNc1ccc(N=C=S)cc1 [GHP 1033] | 100 µM
CCOC(=O)CN=C=S [GHP 1061] | 8.2 µM
CC(O)CCCCN=C=S (stereo not drawn) [GHP 1106] | 0.35 µM
CSc1ccccc1CN=C=S [GHP 1046] | 6.8 µM
C[S+]([O-])CCCCCN=C=S (stereo not drawn) [GHP 1002] | 0.94 µM
C[S+]([O-])CCCN=C=S (stereo not drawn) [GHP 1009] | 2.36 µM
COc1cccc(CN=C=S)c1 [GHP 1042] | 8.65 µM
CCOC(=O)C(CCSC)N=C=S (stereo not drawn) [GHP 1074] | 2.64 µM
COc1cccc(OC)c1CN=C=S [GHP 1044] | 5.8 µM
S=C=NCc1ccccc1Br [GHP 1049] | 12.5 µM
S=C=NCc1ccccc1Cl [GHP 1048] | 14.1 µM
CS(=O)(=O)CCCCCN=C=S [GHP 1003] | 0.98 µM
CN(C)c1ccccc1CN=C=S [GHP 1045] | 12.5 µM
CS(=O)(=O)CCCN=C=S [GHP 1010] | 1.32 µM
S=C=NC1CCc2ccccc21 (stereo not drawn) [GHP 1052] | 38.9 µM
COc1ccc(CN=C=S)cc1 [GHP 1043] | 25 µM
CCc1ccccc1CN=C=S [GHP 1053] | 12.5 µM
CSc1ccccc1CCN=C=S [GHP 1022] | 7.4 µM
CSC(=O)CCCCN=C=S [GHP 1104] | 2.8 µM
O=C(O)CCCCN=C=S [GHP 1103] | 2.19 µM
COc1ccccc1CN=C=S [GHP 1041] | 2.41 µM
CCCCC(=O)CCCCN=C=S [GHP 1081] | 2.0 µM
Fc1ccccc1CN=C=S [GHP 1047] | 13.1 µM
CSCCCN=C=S [GHP 1008] | 3.52 µM
CS(=O)(=O)[C@H]1CC[C@@H](N=C=S)CC1 [GHF 1073] | 0.44 µM
CS(=O)(=O)CCCCN=C=S [GHP 1007] | 0.82 µM

SMILES | CD
S=C=Nc1ccccc1Cl [GHP 1032] | 100 µM
C[S+]([O-])CCCCN=C=S (stereo not drawn) [GHP 1005] | 0.20 µM
CS(=O)(=O)[C@H]1CCC[C@H](CN=C=S)C1 [GHP 1079] | 0.48 µM
CS(=O)(=O)[C@H]1CCC[C@@H](CN=C=S)C1 [GHP 1080] | 0.41 µM
N#CC1CC2CC1CC2N=C=S (stereo not drawn) [GHP 1071] | 0.59 µM
CC(=O)C1CC2CC1CC2N=C=S (stereo not drawn) [GHP 1067] | 0.43 µM
CC(O)C1CC2CC1CC2N=C=S (stereo not drawn) [GHP 1075] | 0.45 µM
CC(=O)C1CC2CC(N=C=S)C1C2 (stereo not drawn) [GHP 1066] | 0.26 µM
Cc1ccccc1CN=C=S [GHP 1050] | 3.7 µM
CC(=O)CCCCN=C=S [GHP 1105] | 0.23 µM
O=[N+]([O-])C1CC2CC1CC2N=C=S (stereo not drawn) [GHP 1072] | 1.05 µM
OC1CC2CC(N=C=S)C1C2 (stereo not drawn) [GHP 1076] | 1.10 µM
CSCc1ccccc1CN=C=S [GHP 1021] | 4.3 µM
COC(=O)C1CC2CC(N=C=S)C1C2 (stereo not drawn) [GHP 1070] | 1.6 µM
CS(=O)(=O)C1CC2CC1CC2N=C=S (stereo not drawn) [GHP 1064] | 0.66 µM
COC(=O)CCCCN=C=S [GHP 1102] | 2.81 µM
OC1CC2CC1CC2N=C=S (stereo not drawn) [GHP 1077] | 1.85 µM
CS(=O)(=O)C1CC2CC(N=C=S)C1C2 (stereo not drawn) [GHP 1068] | 0.15 µM
CP(C)(=O)CCCCN=C=S [GHP 1078] | 0.43 µM
COc1ccccc1N=C=S [GHP 1031] | 100 µM
CSCCc1ccccc1N=C=S [GHP 1023] | 100 µM
COC(=O)C1CC2CC(N=C=S)C1C2 (stereo not drawn) [GHP 1069] | 0.68 µM
N#CCCCCN=C=S [GHP 1101] | 1.97 µM
CSCCCCCN=C=S [GHP 1001] | 1.71 µM
CCOc1ccccc1CN=C=S [GHP 1051] | 2.5 µM
